Measured values published in publication PMC6349357, “Computational and experimental analysis of bioactive peptide linear motifs in the integrin adhesome” (PLoS ONE, 2019).

Legend:
[1] = system: tyrosine phosphorylation in platelets; assay: Phosphotyrosine western blot (4G10) of platelets treated with peptide; type: cell-based, human (healthy volunteers); parameters: key to Phospho: R: in resting platelets; A: after TRAP activation; conditions: phosphorylation changes associated with peptide treatment; pal 20 μM, tat 50 μM, TRAP 4 μM
Protocol: A platelet concentration of 3x10^5 /μl was used when performing standard aggregations and a concentration of 1x10^6 /μl was used for sample preparation for western blot analysis. The extent of platelet aggregation was measured by quantifying the optical density of the samples using the Bio-Data PAP-8 aggregometer (platelet aggregation profiler, Horsham, PA, USA). A temperature of 37°C was maintained and samples were stirred using magnets spinning at 1100 rpm. 200 μl of washed platelets was added to each aggregation tube. Different volumes of buffer, peptide and TRAP were added to achieve the desired concentrations. Peptide/buffer was added to each well after two minutes. TRAP, with a final concentration depending on the experiment, was added 6 minutes later and data was collected for an additional 7 minutes.
After the aggregation step, tubes were immediately placed on ice. 27 μl of lysis buffer was then added and the tube was vortexed vigorously. Lysates were left on ice for one hour and vortexed frequently. Proteins were then centrifuged at 14,000 rcf for 10 minutes to remove debris. Samples were then mixed with 2x sample buffer. 50 μl each sample was added to 50 μl of sample buffer. The protein was then denatured by heating to 95°C for 5 minutes. 10 μl of lysate was kept for protein quantification. All samples and lysates were frozen at -80°C.
The Bradford assay was then performed on the lysates to determine protein concentration. Protein concentrations were measured using the Bio-Rad DC Protein Assay. A calibration was created using samples containing a known concentration of bovine serum albumin. These were prepared in advance by sequential dilutions with final concentrations of 1.5mg/ml, 1mg/ml, 0.8mg/ml, 0.6mg/ml, 0.4mg/ml, 0.2mg/ml, 0mg/ml. Samples were then dispensed into a 96 well plate and the Bio-Rad DC reagents were added as described in the protocol. Samples were left to rest for 15 minutes and were then read using 690 0.15 mode on the Wallac plate reader. A standard curve was calculated from the standard samples of known concentration and the y = ax+b equation was used to determine the concentration of the other samples.
Sodium Dodecyl Sulfate Polyacrylamide Gel Electrophoresis (SDS-PAGE) was performed to separate proteins by molecular weight. Polyacrylamide gels were prepared (see Reagents section). Samples or molecular markers were loaded in volumes to give 20 μg of protein. The gels were then run for approximately 80 minutes or until the samples reached the end of the gel. The proteins were then transferred to polyvinylidene difluoride (PVDF) membranes using a Bio-Rad Wet Blot Transfer Cell apparatus. During the transfer the membranes were submerged in 1x transfer buffer (10% 10x transfer buffer, 70% deionised water and 20% methanol). Transfer was performed either overnight at 40 volts at 4°C, or at 100 volts for 1 hour cooled with an ice block. After the transfer the membranes were blocked for 1 hour using 3% bovine albumin serum (BSA) dissolved in TBS-T. Membranes were incubated with 4G10 antibody with a 1:1000 dilution. Unbound primary antibody was washed off with TBS-T three times for 5 minutes each. Membranes were then incubated with anti-mouse IgG secondary antibody (Millipore) with a dilution of 1:30,000. Membranes were submerged in chemiluminescence ECL solution (Thermo Scientific). They were then measured using the western blot developer UVP. One image was taken every 80 seconds for 40 minutes. Numeric data was extracted from selected blots using ImageJ.

vinculin in HeLa cells = biological target: T1, vinculin in HeLa cells (Homo sapiens, UniProt P18206); assay: Co-localization of 5FAM-labeled peptide with vinculin in HeLa cells (microscopy); type: cell-based; conditions: 15 μM, 5-15 minutes
T1 construct: endogenous in cells; host or cells: HeLa
T1 sequence (P18206 1-1066 isoform P18206-2): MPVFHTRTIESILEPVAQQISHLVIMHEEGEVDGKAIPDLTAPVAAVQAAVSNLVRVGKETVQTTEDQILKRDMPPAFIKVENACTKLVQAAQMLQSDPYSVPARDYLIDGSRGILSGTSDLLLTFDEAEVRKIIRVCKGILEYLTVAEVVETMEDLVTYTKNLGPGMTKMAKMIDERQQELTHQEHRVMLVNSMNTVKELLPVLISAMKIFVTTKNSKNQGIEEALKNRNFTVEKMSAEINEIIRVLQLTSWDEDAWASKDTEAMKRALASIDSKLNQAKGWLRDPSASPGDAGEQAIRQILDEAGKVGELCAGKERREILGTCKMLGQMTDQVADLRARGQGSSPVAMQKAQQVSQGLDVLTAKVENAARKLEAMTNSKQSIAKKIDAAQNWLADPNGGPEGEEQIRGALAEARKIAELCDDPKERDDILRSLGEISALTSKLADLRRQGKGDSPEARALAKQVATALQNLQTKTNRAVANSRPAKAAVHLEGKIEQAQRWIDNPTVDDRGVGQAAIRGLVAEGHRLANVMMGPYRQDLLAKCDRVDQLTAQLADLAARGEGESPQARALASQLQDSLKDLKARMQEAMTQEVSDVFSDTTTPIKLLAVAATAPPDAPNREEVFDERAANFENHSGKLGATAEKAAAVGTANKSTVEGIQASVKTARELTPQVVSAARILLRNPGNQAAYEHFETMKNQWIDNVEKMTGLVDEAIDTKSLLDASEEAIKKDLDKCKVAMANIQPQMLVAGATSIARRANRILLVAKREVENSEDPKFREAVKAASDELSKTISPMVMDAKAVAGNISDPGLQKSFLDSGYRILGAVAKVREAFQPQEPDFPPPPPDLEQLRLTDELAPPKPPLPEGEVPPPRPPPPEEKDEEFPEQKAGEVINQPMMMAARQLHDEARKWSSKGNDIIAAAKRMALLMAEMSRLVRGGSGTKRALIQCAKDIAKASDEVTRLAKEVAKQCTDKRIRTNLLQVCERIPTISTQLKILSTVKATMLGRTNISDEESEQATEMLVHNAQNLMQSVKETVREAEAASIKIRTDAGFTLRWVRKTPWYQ
Protocol: HeLa cells were seeded on a 24-well plate with inserted coverslips at a density of 30000 cells/well. After 24h the cells were treated with 15 μM peptide for the desired amount of time (5, 10, 15 minutes). Cells were then fixed in 3% paraformaldehyde (PFA, Sigma) for 20 minutes and permeabilized with 0.1% Triton X-100 (Sigma) for 5 minutes at room temperature. Cells were then washed 3 times with PBS and stained with antibodies. Staining with primary antibody (paxillin/vinculin (Abcam)) was performed for 30 minutes, followed by three PBS washes and secondary staining using goat anti-mouse Alexa 568 antibody (Life Technologies) for 30 minutes. Then the nuclei were stained with 0.2 μg/ml Hoechst33342, the coverslips were thoroughly washed with PBS and mounted on glass slides with Mowiol mounting medium. The slides were then imaged on a FluoView FV1000 laser scanning microscope (Olympus) with 60x UPLSAPO 1.35NA (Olympus) oil immersion objective.

Co-localization with vinculin (vinculin in HeLa cells): co-localized with vinculin
Substance: tat-WEQLLTTIARTINEVENQI-(NH2) [tat-ACTN1_VBS]
Phospho [1]: R
